For ten molecules, dTm results are on record in publication PMC12136037, “Type II kinase inhibitors that target Parkinson’s disease–associated LRRK2” (Science Advances, 2025).

Test in all cases: DSF 100 kinase selectivity screen;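 note: compound tested at 20 µM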
Holding throughout (assay type): binding

Assay [1] concerns the target T1, ~100 representative kinases (Homo sapiens, UniProt O43293).
T1 construct: Recombinant protein kinase domains with a concentration of 2 μM
Conditions: Protein DAPK3; average of three replicates. The method in brief:
(§1)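 Each kinase domain, at 2 μM, is mixed with 20 μM test compound and SYPRO Orange in Hepes (20 mM, pH 7.5) with 500 mM NaCl. Temperature is then raised at 3°C/min and fluorescence-monitored unfolding yields the melting temperature change, ΔTm in degrees Celsius.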

Assay [2] addresses T2, ~100 representative kinases (Homo sapiens, UniProt P15735).
T2 construct: Recombinant protein kinase domains with a concentration of 2 μM
T2 sequence (P15735 1-406): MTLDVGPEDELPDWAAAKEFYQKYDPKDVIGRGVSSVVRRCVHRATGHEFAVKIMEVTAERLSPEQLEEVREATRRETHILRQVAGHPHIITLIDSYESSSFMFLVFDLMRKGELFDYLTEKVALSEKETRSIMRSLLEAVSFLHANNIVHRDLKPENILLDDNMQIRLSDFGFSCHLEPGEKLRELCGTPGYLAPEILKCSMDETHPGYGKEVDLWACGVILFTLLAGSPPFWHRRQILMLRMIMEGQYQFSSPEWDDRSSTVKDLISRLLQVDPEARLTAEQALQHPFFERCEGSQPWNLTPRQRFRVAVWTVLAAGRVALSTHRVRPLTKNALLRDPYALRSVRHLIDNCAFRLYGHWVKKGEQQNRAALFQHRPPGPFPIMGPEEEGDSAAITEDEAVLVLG
Particulars: protein PHKG2; average of three replicates. The method in brief:
as §1

Assay [3] deals with T3, ~100 representative kinases (Homo sapiens, UniProt P49759).
T3 construct: Recombinant protein kinase domains with a concentration of 2 μM
Particulars: Protein CLK1; average of three replicates. In a few lines:
as §1

For assay [4], the target named is T4, ~100 representative kinases (Homo sapiens, UniProt P53355).
T4 construct: Recombinant protein kinase domains with a concentration of 2 μM
Conditions: Protein DAPK1; average of three replicates. In a few lines:
as §1

Assay [5] has as its target T5, ~100 representative kinases (Homo sapiens, UniProt Q13873).
T5 construct: Recombinant protein kinase domains with a concentration of 2 μM
T5 sequence (Q13873 27-1038): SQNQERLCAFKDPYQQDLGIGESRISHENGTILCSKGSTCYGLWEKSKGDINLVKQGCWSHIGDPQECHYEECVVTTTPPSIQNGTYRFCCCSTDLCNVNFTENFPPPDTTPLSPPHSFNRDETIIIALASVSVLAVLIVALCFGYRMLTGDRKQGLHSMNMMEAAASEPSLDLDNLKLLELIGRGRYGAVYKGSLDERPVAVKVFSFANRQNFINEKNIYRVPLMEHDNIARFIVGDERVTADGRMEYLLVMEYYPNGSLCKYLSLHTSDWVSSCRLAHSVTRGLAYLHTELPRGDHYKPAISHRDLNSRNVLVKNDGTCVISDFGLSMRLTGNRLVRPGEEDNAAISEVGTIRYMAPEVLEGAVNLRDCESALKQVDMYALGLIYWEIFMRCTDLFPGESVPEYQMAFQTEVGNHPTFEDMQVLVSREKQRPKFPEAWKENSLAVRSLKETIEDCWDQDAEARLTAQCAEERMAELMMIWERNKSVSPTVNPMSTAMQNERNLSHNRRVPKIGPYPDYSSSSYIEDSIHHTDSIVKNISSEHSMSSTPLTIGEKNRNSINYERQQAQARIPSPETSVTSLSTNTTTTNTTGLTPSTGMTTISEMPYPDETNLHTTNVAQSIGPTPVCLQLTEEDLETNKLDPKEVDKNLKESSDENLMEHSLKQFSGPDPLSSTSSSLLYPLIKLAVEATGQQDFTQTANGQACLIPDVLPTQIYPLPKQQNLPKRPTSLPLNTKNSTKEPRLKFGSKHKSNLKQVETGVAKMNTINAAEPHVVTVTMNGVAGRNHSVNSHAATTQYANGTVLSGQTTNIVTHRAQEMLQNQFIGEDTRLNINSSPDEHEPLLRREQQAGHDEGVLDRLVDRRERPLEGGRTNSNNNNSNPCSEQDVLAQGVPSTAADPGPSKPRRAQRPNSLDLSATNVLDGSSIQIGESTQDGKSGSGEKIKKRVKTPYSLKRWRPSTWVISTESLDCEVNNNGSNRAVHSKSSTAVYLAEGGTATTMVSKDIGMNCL
Conditions: Protein BMPR2; average of three replicates. The method in brief:
as §1

Assay [6] concerns the target T6, ~100 representative kinases (Homo sapiens, UniProt Q2M2I8).
T6 construct: Recombinant protein kinase domains with a concentration of 2 μM
Particulars: Protein AAK1; average of three replicates. In a few lines:
as §1

Assay [7] addresses T7, ~100 representative kinases (Homo sapiens, UniProt Q96RR4).
T7 construct: Recombinant protein kinase domains with a concentration of 2 μM
Conditions: Protein CAMKK2; average of three replicates. In a few lines: as §1

Assay [8] concerns the target T8, ~100 representative kinases (Homo sapiens, UniProt Q9UKI8).
T8 construct: Recombinant protein kinase domains with a concentration of 2 μM
T8 sequence (Q9UKI8 1-766): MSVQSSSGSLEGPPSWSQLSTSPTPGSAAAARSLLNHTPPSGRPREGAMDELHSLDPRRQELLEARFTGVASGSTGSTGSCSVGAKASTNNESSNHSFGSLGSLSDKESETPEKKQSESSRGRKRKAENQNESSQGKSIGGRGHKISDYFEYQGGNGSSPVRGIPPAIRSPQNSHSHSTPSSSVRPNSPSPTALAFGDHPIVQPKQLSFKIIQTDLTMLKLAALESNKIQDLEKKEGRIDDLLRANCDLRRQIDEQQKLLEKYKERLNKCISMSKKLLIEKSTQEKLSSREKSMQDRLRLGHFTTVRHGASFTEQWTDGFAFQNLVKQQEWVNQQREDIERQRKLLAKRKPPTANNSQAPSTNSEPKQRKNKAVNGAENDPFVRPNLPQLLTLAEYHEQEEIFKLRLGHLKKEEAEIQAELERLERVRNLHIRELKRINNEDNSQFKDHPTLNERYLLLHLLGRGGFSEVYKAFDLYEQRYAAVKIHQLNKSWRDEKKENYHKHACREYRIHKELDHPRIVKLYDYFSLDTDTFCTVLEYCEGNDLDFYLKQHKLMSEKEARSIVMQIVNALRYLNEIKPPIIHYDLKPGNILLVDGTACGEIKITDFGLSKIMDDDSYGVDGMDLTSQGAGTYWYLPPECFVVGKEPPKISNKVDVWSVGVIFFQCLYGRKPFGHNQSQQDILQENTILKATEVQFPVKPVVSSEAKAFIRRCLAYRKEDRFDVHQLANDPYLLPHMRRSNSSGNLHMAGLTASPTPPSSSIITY
Conditions: Protein TLK1; DSF; average of three replicates. In a few lines:
as §1

T6 sequence (Q2M2I8 whole entry, the tested form may be a part): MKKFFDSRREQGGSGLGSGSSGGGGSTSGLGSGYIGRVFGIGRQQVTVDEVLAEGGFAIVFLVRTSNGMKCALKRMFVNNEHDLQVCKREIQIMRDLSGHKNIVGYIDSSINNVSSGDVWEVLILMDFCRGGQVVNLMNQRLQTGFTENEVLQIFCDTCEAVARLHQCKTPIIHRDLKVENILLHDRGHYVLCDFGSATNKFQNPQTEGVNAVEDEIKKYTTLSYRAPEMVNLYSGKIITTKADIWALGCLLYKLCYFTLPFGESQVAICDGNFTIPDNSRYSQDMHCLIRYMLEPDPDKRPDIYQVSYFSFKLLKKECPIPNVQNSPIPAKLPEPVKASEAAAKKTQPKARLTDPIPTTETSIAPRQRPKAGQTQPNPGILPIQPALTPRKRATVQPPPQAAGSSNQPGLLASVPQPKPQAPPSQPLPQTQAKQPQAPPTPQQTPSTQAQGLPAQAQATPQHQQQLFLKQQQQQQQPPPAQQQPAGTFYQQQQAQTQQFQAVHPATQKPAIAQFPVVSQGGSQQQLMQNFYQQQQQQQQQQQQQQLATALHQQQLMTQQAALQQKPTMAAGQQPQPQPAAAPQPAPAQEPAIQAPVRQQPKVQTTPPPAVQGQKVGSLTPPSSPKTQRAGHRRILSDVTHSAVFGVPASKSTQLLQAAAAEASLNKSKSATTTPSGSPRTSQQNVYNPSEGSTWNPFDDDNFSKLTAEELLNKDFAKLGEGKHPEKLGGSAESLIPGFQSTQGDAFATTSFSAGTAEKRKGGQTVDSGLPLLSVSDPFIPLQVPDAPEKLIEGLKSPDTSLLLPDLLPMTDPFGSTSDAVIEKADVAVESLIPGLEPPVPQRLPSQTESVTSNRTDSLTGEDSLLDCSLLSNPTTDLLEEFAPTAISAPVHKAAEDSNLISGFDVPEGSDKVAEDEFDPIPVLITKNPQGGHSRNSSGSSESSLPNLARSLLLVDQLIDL
T7 sequence (Q96RR4 whole entry, the tested form may be a part): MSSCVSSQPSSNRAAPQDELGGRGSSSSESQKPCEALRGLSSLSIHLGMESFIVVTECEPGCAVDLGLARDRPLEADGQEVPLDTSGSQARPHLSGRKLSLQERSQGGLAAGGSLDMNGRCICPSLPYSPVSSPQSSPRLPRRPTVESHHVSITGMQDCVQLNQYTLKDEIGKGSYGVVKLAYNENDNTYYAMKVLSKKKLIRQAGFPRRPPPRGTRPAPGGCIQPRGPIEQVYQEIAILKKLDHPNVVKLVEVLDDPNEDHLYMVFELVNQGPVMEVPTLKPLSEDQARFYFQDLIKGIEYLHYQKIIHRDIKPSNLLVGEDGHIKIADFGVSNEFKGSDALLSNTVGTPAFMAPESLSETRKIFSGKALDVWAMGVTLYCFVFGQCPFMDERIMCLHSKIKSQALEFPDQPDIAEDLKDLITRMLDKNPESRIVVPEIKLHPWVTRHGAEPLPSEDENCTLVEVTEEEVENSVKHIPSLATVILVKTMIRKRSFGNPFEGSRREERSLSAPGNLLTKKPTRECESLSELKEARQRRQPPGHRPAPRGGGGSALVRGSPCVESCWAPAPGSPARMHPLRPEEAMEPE
T4 sequence (P53355 whole entry, the tested form may be a part): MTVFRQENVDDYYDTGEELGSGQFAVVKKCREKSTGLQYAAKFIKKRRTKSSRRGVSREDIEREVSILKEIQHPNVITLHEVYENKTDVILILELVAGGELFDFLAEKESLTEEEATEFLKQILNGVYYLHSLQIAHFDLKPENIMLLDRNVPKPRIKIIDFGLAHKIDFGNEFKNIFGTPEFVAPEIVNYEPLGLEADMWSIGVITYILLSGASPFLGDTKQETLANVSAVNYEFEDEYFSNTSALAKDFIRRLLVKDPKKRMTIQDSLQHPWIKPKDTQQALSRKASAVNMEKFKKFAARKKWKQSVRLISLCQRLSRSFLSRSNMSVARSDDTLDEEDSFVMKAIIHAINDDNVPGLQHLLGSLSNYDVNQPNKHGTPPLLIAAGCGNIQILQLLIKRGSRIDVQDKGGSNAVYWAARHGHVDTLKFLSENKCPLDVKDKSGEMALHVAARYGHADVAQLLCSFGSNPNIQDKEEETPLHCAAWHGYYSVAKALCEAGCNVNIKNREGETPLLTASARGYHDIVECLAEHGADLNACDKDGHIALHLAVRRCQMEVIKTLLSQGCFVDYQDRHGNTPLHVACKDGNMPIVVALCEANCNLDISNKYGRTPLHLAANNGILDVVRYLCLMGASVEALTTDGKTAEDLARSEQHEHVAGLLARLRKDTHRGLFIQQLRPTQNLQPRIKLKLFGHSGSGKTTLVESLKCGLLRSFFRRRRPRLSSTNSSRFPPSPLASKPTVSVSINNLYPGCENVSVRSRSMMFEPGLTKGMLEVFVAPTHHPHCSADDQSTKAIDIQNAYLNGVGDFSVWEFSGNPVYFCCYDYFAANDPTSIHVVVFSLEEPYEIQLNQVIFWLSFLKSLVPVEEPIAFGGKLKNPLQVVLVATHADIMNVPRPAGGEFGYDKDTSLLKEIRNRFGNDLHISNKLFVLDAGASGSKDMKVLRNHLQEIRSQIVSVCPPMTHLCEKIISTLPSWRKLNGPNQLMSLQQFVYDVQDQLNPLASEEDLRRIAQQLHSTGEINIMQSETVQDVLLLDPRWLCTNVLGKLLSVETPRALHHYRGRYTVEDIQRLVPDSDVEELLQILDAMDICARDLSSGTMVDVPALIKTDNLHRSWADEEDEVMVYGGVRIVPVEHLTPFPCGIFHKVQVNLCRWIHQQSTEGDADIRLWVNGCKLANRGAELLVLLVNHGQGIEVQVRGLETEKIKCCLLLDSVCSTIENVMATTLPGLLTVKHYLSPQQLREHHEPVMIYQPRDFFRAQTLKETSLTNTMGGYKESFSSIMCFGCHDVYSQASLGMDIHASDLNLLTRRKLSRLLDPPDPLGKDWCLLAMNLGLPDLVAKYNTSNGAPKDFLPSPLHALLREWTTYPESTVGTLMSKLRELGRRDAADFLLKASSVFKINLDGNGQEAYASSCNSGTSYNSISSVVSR
T3 sequence (P49759 whole entry, the tested form may be a part): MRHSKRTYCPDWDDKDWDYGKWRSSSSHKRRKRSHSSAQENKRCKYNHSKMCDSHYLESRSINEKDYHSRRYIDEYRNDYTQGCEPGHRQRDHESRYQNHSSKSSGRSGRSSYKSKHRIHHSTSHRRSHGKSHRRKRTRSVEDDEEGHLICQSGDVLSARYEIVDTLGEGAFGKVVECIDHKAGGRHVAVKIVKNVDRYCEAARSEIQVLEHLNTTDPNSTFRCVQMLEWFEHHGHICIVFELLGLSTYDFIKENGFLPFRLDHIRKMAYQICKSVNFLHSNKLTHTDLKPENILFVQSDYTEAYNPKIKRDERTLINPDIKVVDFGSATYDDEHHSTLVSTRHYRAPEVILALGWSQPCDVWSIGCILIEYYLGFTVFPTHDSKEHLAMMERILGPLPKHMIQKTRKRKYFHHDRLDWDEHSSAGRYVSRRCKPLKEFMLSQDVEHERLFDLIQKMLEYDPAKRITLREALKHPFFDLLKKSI
T1 sequence (O43293 whole entry, the tested form may be a part): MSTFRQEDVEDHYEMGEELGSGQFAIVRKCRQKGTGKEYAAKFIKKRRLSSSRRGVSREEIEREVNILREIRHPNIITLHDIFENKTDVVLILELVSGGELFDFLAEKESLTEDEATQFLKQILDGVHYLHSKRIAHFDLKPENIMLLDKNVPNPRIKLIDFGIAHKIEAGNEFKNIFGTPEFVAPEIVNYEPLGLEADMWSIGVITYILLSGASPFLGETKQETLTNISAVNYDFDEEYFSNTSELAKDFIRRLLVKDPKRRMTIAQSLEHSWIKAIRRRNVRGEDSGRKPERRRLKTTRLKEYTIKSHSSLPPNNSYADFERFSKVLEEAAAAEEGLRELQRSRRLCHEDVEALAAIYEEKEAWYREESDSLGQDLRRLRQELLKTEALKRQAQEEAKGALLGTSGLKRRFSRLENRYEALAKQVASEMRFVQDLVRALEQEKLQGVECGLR

`Cc1cc(F)ccc1NC(=O)C1(C(=O)Nc2cccc(-c3c[nH]c4ncnc(N5CCOCC5)c34)c2)CC1` [Compound 24]: the dTm was 2.09 K in assay [1]; -0.00698 K in assay [2]; 5.49 K in assay [3]; -1.06 K in assay [4]; 0.57 K in assay [5]; 3.04 K in assay [6]. Moreover, the figures for the dTm in assay [7] and in assay [8] were 6.43 K and -0.75 K, respectively.
With `O=C(Nc1cccc(-c2c[nH]c3ncnc(N4CCOCC4)c23)c1)C1(C(=O)Nc2cc(Br)c(F)cc2F)CC1` [Compound 25], the dTm was 3.02 K in assay [1]; 0.58 K in assay [2]; 4.99 K in assay [3]; -0.48 K in assay [4]; 0.20 K in assay [5]; -2.54 K in assay [6]. Further, the dTm in assay [7] turned out to be 6.31 K; in assay [8], 1.57 K.
Regarding `O=C(Nc1cccc(-c2c[nH]c3ncnc(N4CCOCC4)c23)c1)C1(C(=O)Nc2ccc(F)c(Br)c2F)CC1` [Compound 26], the dTm in assay [1] is 3.21 K; in assay [2] it was 0.60 K; in assay [3], 6.34 K; in assay [4] it was -0.65 K; in assay [5] it was 0.05 K; in assay [6] it was -0.08 K. Moreover, the dTm came to 5.53 K in assay [7] and 1.63 K in assay [8].
With `O=C(Nc1cc(F)cc(Br)c1)C1(C(=O)Nc2cccc(-c3c[nH]c4ncnc(N5CCOCC5)c34)c2)CC1` [Compound 27], the dTm in assay [1] is on record as 4.42 K; in assay [2], 0.85 K; in assay [3], 7.78 K; in assay [4], -3.19 K; in assay [5], 0.25 K; in assay [6], -2.65 K. In addition, the values for the dTm in assay [7] and in assay [8] were 3.64 K and 1.59 K, respectively.
As to `CC(C)(C)c1cc(NC(=O)Nc2cccc(-c3c[nH]c4ncnc(N5CCOCC5)c34)c2)n(-c2ccc3ncccc3c2)n1` [Compound 28], the dTm was 14.79 K in assay [1]; 3.91 K in assay [2]; 19.59 K in assay [3]; 2.32 K in assay [4]; 0.69 K in assay [5]; 6.38 K in assay [6]. For the same molecule, the dTm worked out at 12.27 K in assay [7] and 0.24 K in assay [8].
With `CCSc1nc(NC)c2c(-c3cccc(NC(=O)Nc4cc(C(C)(C)C)nn4-c4ccc(C)cc4)c3)c[nH]c2n1` [Compound 32], the dTm in assay [1] was 1.05 K; in assay [2], -0.14 K; in assay [3], 5.52 K; in assay [4], -0.22 K; in assay [5] it was 0.45 K; in assay [6], 0.08 K. For the same molecule, the values for the dTm in assay [7] and in assay [8] were 2.43 K and -0.57 K, respectively.
As for `COc1cc2c(Oc3ccc(NC(=O)C4(C(=O)Nc5ccc(F)cc5)CC4)cc3F)ccnc2cc1OCCCN1CCOCC1` [Foretinib, reference compound], the dTm is given as 5.00 K in assay [1]; 1.61 K in assay [2]; 6.72 K in assay [3]; -0.15 K in assay [4]; 0.59 K in assay [5]; 0.82 K in assay [6]. Also, the dTm in assay [7] came to 10.75 K; in assay [8], 0.36 K.
Consider `CCNc1nc(Nc2cc(F)c(C(=O)N3CCOCC3)cc2OC)ncc1C(F)(F)F` [GNE-7915], for which the dTm is 1.72 K in assay [1]; 1.11 K in assay [2]; 5.28 K in assay [3]; 1.29 K in assay [4]; 1.37 K in assay [5]; 4.61 K in assay [6]. For the same molecule, the dTm in assay [7] is on record as 1.38 K; in assay [8], 0.65 K.
On to `C[C@@H]1CN(c2cc(-c3n[nH]c4ccc(OC5(C)CC5)cc34)ncn2)C[C@H](C)O1` [MLi2], for which the dTm in assay [1] came out at 1.94 K; in assay [2], 4.00 K; in assay [3], 3.00 K; in assay [4] it was 0.22 K; in assay [5], 0.0116 K; in assay [6], 1.29 K. The dTm in assay [7] was 8.80 K; in assay [8] it was 0.0124 K.
As to `Cn1cc(-c2c[nH]c3ncnc(N4CCOCC4)c23)cc1C#N` [PFE-360], the dTm stood at 1.10 K in assay [1]; 1.53 K in assay [2]; 7.59 K in assay [3]; 0.54 K in assay [4]; 2.89 K in assay [5]; 8.34 K in assay [6]. Moreover, the results for the dTm in assay [7] and in assay [8] were 5.91 K and -0.11 K, respectively.
